# In US20260226048A1, “MULTI-CYCLIC IRAK AND FLT3 INHIBITING COMPOUNDS AND USES THEREOF” (CHILDREN'S HOSPITAL MEDICAL CENTER, priority 2023, published 2026):
# Like-named read-outs stand apart in the source and are kept apart here.
# Experiments:
# [1] = tested on: THP1 cells (FLT3 WT); test: Combination drug screening with venetoclax in THP1 cells (Cell Titre Glo, 10 × 10); type: cell-based; conditions: for Excess HSA (sum excess HSA score, combination with venetoclax): 10 × 10 dataset, Cell Titre Glo at 48 hours, optimal of 4 dose combinations, negative = synergy; for Concentration needed to decrease the 312.5 nM Venetoclax response to <20%: Cell Titer Glo at 48 hours
# Procedure: (§1) These assays were performed using the Cell Titre Glo assay, measured at 48 hours.
# (§2) A smaller concentration indicates higher potency to synergize with Venetoclax.
# [2] = molecular target: T1, IRAK1 (Homo sapiens, UniProt P51617); test: RBC HotSpot Kinase Assay, IRAK1; type: biochemical; conditions: isolated kinase enzyme, 33P-ATP, P81 filter-binding
# T1 construct: purchased Reaction Biology (RBC HotSpot)
# T1 sequence (P51617 whole entry): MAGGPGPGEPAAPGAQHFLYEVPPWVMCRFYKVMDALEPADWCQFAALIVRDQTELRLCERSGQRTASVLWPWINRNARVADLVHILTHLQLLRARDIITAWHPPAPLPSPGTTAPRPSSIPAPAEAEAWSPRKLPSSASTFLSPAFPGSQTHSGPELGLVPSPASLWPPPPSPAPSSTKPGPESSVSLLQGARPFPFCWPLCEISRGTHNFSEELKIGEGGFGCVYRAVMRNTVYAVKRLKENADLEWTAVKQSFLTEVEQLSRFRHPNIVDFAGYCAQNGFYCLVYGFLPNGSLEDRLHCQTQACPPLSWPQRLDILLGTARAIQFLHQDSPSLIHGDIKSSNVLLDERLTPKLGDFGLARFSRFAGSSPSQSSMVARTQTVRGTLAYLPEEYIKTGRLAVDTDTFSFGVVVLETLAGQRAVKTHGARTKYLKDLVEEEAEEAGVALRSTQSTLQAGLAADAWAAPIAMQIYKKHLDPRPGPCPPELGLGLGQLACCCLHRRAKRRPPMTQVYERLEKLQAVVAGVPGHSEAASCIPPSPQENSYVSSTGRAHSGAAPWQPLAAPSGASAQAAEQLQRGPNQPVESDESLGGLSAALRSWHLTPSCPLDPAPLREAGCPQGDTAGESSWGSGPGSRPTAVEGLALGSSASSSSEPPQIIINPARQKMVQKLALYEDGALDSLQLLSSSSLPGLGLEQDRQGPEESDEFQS
# In short: (§3)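 Radiometric HotSpot assay of catalytic activity with isolated recombinant kinase, possibly truncated or kinase domain only. Buffer: 20 mM Hepes pH 7.5, 10 mM MgCl2, 1 mM EGTA, 0.01% Brij35, 0.02 mg/ml BSA, 0.1 mM Na3VO4, 2 mM DTT, 1% DMSO, with cofactors specific to each kinase.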
# [3] = tested on: MOLM14 D835Y cells; test: MOLM14 D835Y cell viability assay (Cell Titer Glo); type: cell-based; conditions: cell viability, Cell Titer Glo, 48 hours, read-out: MOLM14 D835Y IC50
# In short: (§4)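 MOLM14 cells with FLT3 D835Y or F691L kinase-domain resistance mutations seeded at 1000 cells/well and exposed to compound for 48 h under standard incubator conditions. Viability read by CellTiter-Glo luminescence after 15 min at room temperature.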
# [4] = molecular target: T2, IRAK4 (Homo sapiens, UniProt Q9NWZ3); test: RBC HotSpot Kinase Assay, IRAK4; type: biochemical; set-up: purchased Reaction Biology (RBC HotSpot); conditions: isolated kinase enzyme, 33P-ATP, P81 filter-binding
# T2 sequence (Q9NWZ3 1-460): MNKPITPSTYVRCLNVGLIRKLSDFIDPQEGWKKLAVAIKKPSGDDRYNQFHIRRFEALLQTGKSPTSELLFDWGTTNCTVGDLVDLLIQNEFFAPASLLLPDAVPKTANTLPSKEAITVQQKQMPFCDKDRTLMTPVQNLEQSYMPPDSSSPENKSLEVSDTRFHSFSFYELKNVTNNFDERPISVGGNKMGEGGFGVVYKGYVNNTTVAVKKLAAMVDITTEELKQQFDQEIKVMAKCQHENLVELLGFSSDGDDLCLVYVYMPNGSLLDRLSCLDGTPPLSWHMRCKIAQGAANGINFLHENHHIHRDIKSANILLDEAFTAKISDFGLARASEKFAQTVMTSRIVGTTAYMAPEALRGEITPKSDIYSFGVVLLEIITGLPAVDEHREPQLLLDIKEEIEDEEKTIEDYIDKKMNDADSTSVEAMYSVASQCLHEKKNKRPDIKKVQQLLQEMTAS
# In short: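 Radiometric filter-binding activity assay with isolated recombinant kinase (construct may be truncated or catalytic domain only) in 20 mM Hepes pH 7.5, 10 mM MgCl2, 1 mM EGTA, 2 mM DTT, 1% DMSO. Compound preincubated 20 min with kinase/substrate; reaction started with 33P-ATP, run 2 h at room temperature.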
# [5] = molecular target: T3, FLT3 (Homo sapiens, UniProt P36888); test: RBC HotSpot Kinase Assay, FLT3; type: biochemical; set-up: purchased Reaction Biology (RBC HotSpot); conditions: isolated kinase enzyme, 33P-ATP, P81 filter-binding
# T3 sequence (P36888 27-993): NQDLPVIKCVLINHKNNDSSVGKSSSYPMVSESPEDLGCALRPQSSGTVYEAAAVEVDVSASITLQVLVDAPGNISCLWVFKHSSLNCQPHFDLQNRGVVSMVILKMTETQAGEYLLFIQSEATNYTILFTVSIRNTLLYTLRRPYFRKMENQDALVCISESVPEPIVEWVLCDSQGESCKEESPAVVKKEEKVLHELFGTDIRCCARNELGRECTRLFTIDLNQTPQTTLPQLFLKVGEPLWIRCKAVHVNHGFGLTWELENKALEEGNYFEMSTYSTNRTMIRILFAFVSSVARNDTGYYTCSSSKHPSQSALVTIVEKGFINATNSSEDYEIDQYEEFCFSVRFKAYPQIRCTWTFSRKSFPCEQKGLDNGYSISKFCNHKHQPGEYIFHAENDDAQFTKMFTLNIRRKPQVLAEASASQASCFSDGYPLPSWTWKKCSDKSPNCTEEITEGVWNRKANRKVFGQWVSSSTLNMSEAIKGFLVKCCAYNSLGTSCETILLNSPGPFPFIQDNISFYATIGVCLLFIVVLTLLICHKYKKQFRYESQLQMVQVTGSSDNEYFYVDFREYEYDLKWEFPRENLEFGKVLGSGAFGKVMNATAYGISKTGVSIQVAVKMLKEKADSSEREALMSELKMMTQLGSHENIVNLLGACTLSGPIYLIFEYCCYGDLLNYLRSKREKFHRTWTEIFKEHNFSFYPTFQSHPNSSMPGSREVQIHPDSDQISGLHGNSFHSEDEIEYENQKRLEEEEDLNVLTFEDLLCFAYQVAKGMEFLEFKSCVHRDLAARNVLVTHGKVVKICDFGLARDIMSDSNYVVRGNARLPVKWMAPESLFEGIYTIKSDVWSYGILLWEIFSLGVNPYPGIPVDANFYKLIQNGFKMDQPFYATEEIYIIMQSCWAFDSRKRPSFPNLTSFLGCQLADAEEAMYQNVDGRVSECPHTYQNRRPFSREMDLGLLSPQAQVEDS
# In short: as §3
# [6] = tested on: MOLM14-D835Y cells (FLT3-ITD (D835Y) mutant); test: Combination drug screening with venetoclax in MOLM14 (D835Y) cells (Cell Titre Glo, 10 × 10); type: cell-based; set-up: Excess HSA (sum excess HSA score, combination with venetoclax): scale not given here; conditions: for Excess HSA (sum excess HSA score, combination with venetoclax): 10 × 10 dataset, Cell Titre Glo at 48 hours, optimal of 4 dose combinations, negative = synergy; for Concentration of a compound of the disclosure, or gilteritinib, needed to decrease the 62.5 nM Ven response to <10% in MOLM14(D835Y) cells: combination with 62.5 nM Venetoclax, Cell Titer Glo, 48 hours, response <10%
# Procedure: as §1, §2
# [7] = tested on: MOLM14 F691L cells; test: MOLM14 F691L cell viability assay (Cell Titer Glo); type: cell-based; conditions: Homo sapiens, MOLM-14; cell viability, Cell Titer Glo, 48 hours; read-out: MOLM14 F691L IC50
# In short: as §4
# [8] = tested on: NF-κB-inducible SEAP reporter in THP-1-Blue NF-κB cells; test: NF-kB SEAP reporter assay in THP-1-Blue NF-κB cells; type: cell-based; conditions: 24 hours
# Procedure: THP-1-Blue NF-κB cells (InvivoGen) carrying a stable integrated NF-κB-inducible secreted embryonic alkaline phosphatase (SEAP) reporter construct were plated at a concentration of 1×10^5 cells per well. The cells were stimulated with Pam3CSK4 (1 ng/mL) or hIL1B (1 ng/mL). After 10-20 minutes, the cells were then treated with vehicle (DMSO) or serial dilutions of the test compounds (10 doses tested for each test compound, with a 1:10 dilution series starting at 1 μM or 3 μM) with a final volume of 200 μL for 24 hours at 37° C. After 24 hours, the cells were centrifuged and 20 μL supernatant was incubated with 180 μL QUANTI-Blue reagent at 37° C. for 30-60 minutes. The levels of NF-κB-induced was measured in a microplate reader at 620 nm.
SMILES,"Excess HSA (sum excess HSA score, combination with venetoclax) [1]",Concentration needed to decrease the 312.5 nM Venetoclax response to <20% [1] [µM],IC50 [2] [nM],IC50 [3] [nM],IC50 [4] [nM],IC50 [5] [nM],"Excess HSA (sum excess HSA score, combination with venetoclax) [6]","Concentration of a compound of the disclosure, or gilteritinib, needed to decrease the 62.5 nM Ven response to <10% in MOLM14(D835Y) cells [6] [nM]","IC50 ([3]; Homo sapiens, MOLM-14, 48 h) [nM]",IC50 [7] [nM],"IC50 ([8]; THP-1-Blue NF-κB cells stimulated with Pam3CSK4 (1 ng/mL), read-out: NF-κB Pam3SCK4 IC50) [nM]","IC50 ([8]; THP-1-Blue NF-κB cells stimulated with hIL1B (1 ng/mL), read-out: NF-κB IL1B IC50) [nM]"
"CC(O)(c1ccc2ncc(-c3nc(N[C@H]4CNCC[C@@H]4F)ncc3F)n2c1)C(F)(F)F (single isomer, unassigned) [Compound 35a]",−937.7,1.25,0.9,26,0.7,< 0.5,−1543,25,–,–,–,–
"COc1cc2ncc(-c3nc(N[C@H]4CNCC[C@@H]4F)ncc3F)n2nc1C1CCC1 [Compound 54a, 4-(6-cyclobutyl-7-methoxyimidazo[1,2-b]pyridazin-3-yl)-5-fluoro-N-((3S,4S)-4-fluoropiperidin-3-yl)pyrimidin-2-amine]",−807.2,5,< 0.5,–,< 0.5,< 0.5,−1490,1.6,1,7,–,–
"COc1cc2ncc(-c3nc(N[C@H]4CNCC[C@@H]4F)ncc3F)n2nc1C1CC(C)(C)C1 [Compound 57a, 4-(6-(3,3-dimethylcyclobutyl)-7-methoxyimidazo[1,2-b]pyridazin-3-yl)-5-fluoro-N-((3S,4S)-4-fluoropiperidin-3-yl)pyrimidin-2-amine]",−1308.2250,–,2,–,1,–,−1762,–,11,90,157,167
"COc1cc2ncc(-c3ccnc(N[C@H]4CNCC[C@@H]4F)n3)n2nc1C1CC2(CCC2)C1 [Compound 74a, N-((3S,4S)-4-fluoropiperidin-3-yl)-4-(7-methoxy-6-(spiro[3.3]heptan-2-yl)imidazo[1,2-b]pyridazin-3-yl)pyrimidin-2-amine]",−456.1,5,91,–,26,< 0.5,−1335,312,80,1000,–,–
"COc1cc2ncc(-c3ccnc(N[C@H]4CNCC[C@@H]4F)n3)n2nc1C1CC(C)(C)C1 [Compound 82a, 4-(6-(3,3-dimethylcyclobutyl)-7-methoxyimidazo[1,2-b]pyridazin-3-yl)-N-((3S,4S)-4-fluoropiperidin-3-yl)pyrimidin-2-amine]",−1292.2960,5,174,–,45,< 0.5,−1679,39,127,1130,–,–
